Data on 3 compounds can be found in US11752155B2, “Treatment of autism spectrum disorders, obsessive-compulsive disorder and anxiety disorders” (Rugen Holdings (Cayman) Limited, priority 2016, dated 2023).

A value given as a limit tells only on which side of the number the result lay.

Data set [1] in a line: Clearance of compound from plasma after IP dosing in mice. Type of data set: in vivo, mouse.
Data set [2] has as its target human NR1/NR2A (Homo sapiens (Human), UniProt Q05586+Q12879). The data set can be described thus: NR2A antagonist activity: calcium influx (Fluo-4) assay in HEK293 cells. The conditions noted are these: Table 1.1B; read-out: NR2A IC50. Type of data set: cell-based. The method, then:
Activation of the NR2A or NR2B subtype of NMDA receptor with glutamate as an agonist and glycine co-agonist on these cells results in calcium influx, which can be monitored with fluorescent indicator Fluo-4.
For experiments, the cells were seeded onto poly-D-lysine-coated 96-well black plates with clear bottom (Corning) at a density of ˜50,000 cells/well. After overnight culture, the growth medium was removed from the wells and the cells were incubated at 37° C. for 60 minutes in Hanks buffer containing 4 μM fluo-4-AM (Invitrogen) and 0.1% bovine serum albumin (BSA). After dye-loading, the cells were washed three times with Hanks buffer and incubated for 10 minutes at room temperature with various concentrations of test compounds prepared in Hanks buffer with 0.1% BSA. The cell plates were placed onto an FDSS Cell fluorescence reader (Hamamatsu). After 20 seconds of reading background fluorescence, agonist glutamate at final 100 µM and co-agonist glycine at final 50 μM were added to the cells to activate the receptor, and the resulting fluorescence changes were recorded and quantified. Based on the changes in fluorescence intensity, the pharmacological effect of test compounds was analyzed and the IC50 values derived from a non-linear least squares fitting of the concentration-dependent response to a standard logistic equation using Prism (Graphpad Software, Inc.): Amplitude=Max Amplitude/(1+(IC50/[antagonist])^n).

In data set [3] the target is native rat brain NR2B receptors (Rattus norvegicus (Rat), UniProt P35439+Q00960). Description: NR2B radioligand binding assay in rat brain using [3H] (E)-N1-(2-methoxybenzyl)-cinnamidine. The conditions noted are these: rat brain NR2B receptors; mean of replicates; read-out: Arithmetic Mean Ki.
Chain of native rat brain NR2B receptors (Q00960 27-1482, other chains not shown): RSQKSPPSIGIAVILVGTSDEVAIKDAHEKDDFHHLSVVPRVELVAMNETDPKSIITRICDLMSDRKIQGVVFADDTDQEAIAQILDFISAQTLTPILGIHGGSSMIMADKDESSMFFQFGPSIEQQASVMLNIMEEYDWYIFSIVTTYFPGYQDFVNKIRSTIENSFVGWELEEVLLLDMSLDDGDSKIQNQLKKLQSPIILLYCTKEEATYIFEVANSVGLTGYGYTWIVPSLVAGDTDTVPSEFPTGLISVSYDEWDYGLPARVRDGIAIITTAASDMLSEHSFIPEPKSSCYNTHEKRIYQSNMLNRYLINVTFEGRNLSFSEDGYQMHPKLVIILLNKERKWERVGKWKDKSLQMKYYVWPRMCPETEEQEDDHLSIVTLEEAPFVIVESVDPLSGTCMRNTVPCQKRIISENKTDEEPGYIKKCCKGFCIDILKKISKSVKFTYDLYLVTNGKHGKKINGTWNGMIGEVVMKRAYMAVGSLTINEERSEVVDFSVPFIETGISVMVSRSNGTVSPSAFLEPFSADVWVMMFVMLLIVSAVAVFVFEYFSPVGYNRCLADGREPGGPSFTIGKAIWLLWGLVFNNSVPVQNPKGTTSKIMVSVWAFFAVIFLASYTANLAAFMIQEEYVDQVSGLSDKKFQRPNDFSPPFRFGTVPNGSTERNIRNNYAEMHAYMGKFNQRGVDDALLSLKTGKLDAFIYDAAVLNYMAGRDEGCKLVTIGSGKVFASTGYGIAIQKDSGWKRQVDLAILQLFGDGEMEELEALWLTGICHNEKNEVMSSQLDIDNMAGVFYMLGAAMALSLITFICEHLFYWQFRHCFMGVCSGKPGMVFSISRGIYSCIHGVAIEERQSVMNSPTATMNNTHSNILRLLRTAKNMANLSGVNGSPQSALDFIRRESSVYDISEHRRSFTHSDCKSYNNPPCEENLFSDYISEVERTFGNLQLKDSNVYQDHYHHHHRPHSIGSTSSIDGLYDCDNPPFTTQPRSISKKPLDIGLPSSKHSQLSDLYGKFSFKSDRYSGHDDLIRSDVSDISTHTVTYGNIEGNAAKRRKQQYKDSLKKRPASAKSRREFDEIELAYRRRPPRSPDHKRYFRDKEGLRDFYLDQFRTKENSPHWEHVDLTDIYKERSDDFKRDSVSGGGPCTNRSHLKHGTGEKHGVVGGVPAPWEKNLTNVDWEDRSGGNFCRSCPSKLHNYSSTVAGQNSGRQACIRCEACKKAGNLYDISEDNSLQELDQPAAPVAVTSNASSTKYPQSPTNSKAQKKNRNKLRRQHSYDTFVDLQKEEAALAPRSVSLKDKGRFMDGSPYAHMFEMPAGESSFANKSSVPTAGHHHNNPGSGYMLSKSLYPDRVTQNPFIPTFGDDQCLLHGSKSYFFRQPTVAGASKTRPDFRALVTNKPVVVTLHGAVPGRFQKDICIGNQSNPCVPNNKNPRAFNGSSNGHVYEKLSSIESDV

Chain of human NR1/NR2A (Q12879 23-1464, other chains not shown): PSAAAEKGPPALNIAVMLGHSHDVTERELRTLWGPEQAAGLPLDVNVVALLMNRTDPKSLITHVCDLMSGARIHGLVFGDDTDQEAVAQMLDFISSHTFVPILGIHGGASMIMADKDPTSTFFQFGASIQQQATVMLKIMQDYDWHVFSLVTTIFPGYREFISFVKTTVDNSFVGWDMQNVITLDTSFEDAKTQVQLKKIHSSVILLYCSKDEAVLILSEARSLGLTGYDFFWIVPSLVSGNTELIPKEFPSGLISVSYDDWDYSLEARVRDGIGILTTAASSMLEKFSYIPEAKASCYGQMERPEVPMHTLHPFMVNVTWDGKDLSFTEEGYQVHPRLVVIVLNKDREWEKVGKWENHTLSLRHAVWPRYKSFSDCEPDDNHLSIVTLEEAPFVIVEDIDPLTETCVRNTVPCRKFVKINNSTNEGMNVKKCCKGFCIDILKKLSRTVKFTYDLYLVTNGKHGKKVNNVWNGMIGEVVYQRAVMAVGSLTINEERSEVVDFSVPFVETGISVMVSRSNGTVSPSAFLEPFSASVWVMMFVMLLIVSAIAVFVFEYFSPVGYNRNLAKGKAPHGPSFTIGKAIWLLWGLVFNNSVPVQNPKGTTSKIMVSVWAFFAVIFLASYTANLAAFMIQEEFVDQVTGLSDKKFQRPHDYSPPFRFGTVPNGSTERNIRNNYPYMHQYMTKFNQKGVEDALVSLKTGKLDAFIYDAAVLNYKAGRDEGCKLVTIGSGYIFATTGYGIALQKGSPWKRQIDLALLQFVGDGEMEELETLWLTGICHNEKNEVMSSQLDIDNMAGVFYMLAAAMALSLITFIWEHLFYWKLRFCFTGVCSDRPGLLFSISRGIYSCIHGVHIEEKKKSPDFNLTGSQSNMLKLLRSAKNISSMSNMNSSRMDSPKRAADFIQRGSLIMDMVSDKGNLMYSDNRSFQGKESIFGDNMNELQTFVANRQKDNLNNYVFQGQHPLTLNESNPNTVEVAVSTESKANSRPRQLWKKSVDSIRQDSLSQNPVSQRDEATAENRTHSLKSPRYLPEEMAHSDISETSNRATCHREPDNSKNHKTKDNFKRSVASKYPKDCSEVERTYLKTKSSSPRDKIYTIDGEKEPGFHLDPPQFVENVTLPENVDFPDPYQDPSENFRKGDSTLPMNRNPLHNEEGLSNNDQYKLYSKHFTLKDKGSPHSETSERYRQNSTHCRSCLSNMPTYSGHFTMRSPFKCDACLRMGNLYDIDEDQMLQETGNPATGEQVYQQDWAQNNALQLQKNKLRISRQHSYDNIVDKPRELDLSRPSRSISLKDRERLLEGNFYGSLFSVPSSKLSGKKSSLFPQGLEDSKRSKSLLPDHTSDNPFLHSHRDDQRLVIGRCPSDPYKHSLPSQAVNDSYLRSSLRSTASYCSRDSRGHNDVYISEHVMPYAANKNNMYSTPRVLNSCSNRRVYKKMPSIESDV

On to `FC(F)c1ccc(C(F)(F)CN2CCC(Nc3ncnc4[nH]ccc34)CC2)cc1` [C-179^A′], for which the “time to clearance of the compound from plasma” value in data set [1] is “about 8 hours”. With `Cc1ccc(COC(=O)N2CC[C@H](CNc3nccn4cnnc34)C(F)(F)C2)cc1` [E1-1.2^B′], the IC50 in data set [2] was over 10 µM. For the same compound, in data set [3], the Ki came out at 4.81 nM. Regarding `Cc1ccc(COC(=O)N2CC[C@H](CNc3cnc(C)cn3)C(F)(F)C2)cc1` [E1-21.26^B′], the “time to clearance of the compound from plasma” value in data set [1] is reported as “about 8 hours”.

The term IC50 denotes the concentration that gives 50% inhibition. A word on the Ki: it is a dissociation constant, usually derived from enzyme kinetics or from competition with a known ligand.
